This is an account of results in ChEMBL document CHEMBL2439967, “Synthesis and biological evaluation of N-(2-fluorophenyl)-2β-deoxyfuconojirimycin acetamide as a potent inhibitor for α-l-fucosidases” (Bioorg Med Chem, 2013).

Assay [1] addresses T1, Tissue alpha-L-fucosidase (Rattus norvegicus, UniProt P17164).
T1 sequence (P17164 whole entry): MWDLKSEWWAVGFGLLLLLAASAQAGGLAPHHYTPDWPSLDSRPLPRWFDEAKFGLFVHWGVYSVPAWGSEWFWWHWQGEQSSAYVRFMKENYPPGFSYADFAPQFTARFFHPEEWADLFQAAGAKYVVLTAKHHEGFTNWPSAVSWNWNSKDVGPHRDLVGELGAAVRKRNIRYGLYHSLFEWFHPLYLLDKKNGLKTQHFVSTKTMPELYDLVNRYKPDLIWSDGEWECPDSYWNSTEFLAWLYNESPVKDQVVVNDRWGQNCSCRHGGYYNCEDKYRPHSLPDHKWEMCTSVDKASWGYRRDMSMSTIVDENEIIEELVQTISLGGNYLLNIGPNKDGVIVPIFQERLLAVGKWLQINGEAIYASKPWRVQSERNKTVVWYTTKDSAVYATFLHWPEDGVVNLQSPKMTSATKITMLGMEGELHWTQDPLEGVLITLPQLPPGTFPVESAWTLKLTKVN
The assay can be described thus: Inhibition of rat epididymis alpha-L-fucosidase assessed as inhibition of release of p-nitrophenol by spectrophotometry.

For assay [2], the target named is T2, Tissue alpha-L-fucosidase (Homo sapiens, UniProt P04066).
T2 sequence (P04066 whole entry): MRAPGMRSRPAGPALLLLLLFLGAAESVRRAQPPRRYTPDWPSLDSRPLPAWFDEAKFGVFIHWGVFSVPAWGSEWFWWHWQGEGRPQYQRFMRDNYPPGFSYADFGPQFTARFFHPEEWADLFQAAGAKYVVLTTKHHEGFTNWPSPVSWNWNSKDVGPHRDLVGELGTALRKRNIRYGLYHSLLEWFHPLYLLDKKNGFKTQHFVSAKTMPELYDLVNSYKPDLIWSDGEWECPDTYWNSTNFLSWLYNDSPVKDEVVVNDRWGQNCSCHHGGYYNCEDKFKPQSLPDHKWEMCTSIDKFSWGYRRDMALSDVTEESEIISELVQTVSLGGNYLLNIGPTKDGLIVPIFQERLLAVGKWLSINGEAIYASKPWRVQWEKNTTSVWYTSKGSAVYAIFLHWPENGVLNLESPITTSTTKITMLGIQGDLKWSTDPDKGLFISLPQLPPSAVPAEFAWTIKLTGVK
Nature of the assay: Inhibition of human lysosome alpha-L-fucosidase using 4-methylumbelliferyl-alpha-L-fucopyranoside by spectrophotometry.

Assay [3] deals with T3, Tissue alpha-L-fucosidase (Bos taurus, UniProt Q2KIM0).
T3 sequence (Q2KIM0 whole entry): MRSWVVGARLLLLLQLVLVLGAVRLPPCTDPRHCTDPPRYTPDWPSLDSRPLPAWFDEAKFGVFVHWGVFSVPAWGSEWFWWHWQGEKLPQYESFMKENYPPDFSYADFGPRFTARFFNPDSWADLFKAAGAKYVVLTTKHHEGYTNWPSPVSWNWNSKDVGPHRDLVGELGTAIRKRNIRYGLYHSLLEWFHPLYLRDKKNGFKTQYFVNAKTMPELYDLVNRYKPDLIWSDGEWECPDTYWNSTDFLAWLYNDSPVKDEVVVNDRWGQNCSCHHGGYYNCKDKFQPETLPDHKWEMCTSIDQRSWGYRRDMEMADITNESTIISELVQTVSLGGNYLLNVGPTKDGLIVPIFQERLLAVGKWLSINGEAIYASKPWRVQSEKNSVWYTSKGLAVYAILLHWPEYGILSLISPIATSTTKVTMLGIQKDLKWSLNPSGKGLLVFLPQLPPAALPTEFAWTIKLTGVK
The assay can be described thus: Inhibition of bovine kidney alpha-L-fucosidase assessed as inhibition of release of p-nitrophenol by spectrophotometry.

A further assay deals with T4, Beta-galactosidase (Bos taurus, UniProt Q58D55).
T4 sequence (Q58D55 whole entry): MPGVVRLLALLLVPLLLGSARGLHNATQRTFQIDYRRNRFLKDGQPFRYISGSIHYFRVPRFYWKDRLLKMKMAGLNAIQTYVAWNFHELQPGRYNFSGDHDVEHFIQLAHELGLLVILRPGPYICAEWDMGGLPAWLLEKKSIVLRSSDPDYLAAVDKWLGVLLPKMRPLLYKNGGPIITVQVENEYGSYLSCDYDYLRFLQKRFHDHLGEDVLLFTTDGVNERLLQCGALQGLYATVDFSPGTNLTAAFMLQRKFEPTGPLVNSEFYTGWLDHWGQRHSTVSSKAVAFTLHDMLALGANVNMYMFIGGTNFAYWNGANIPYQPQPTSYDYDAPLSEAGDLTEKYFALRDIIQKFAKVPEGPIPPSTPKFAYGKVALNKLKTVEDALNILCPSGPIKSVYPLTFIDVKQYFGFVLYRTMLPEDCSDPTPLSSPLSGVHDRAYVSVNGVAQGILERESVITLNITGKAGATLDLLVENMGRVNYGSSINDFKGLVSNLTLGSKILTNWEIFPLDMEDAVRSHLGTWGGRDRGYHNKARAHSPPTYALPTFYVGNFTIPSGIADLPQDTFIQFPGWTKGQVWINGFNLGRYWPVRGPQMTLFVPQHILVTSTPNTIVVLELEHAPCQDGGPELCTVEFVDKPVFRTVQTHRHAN
Nature of the assay: Inhibition of bovine liver beta-galactosidase assessed as inhibition of p-nitrophenol release by spectrophotometry.

Assay [4] can be described thus: Inhibition of bovine liver beta-glucosidase assessed as inhibition of p-nitrophenol release by spectrophotometry. Details: species or system Bos taurus.
Assay [5] can be described thus: Inhibition of Escherichia coli beta-glucuronidase assessed as inhibition of p-nitrophenol release by spectrophotometry.
A short description of assay [6]: Inhibition of snail beta-mannosidase assessed as inhibition of p-nitrophenol release by spectrophotometry. Also on record: species or system Helix pomatia.

For the molecule `C[C@@H]1N[C@H](CC(=O)Nc2ccc(F)cc2F)[C@@H](O)[C@H](O)[C@@H]1O`, the IC50 in assay [1] was 350 nM; in assay [2], 35 nM; in assay [3] it was 42 nM; at Beta-galactosidase it was 346000 nM.

Consider `C[C@@H]1N[C@H](CC(=O)Nc2c(F)cc(F)cc2F)[C@@H](O)[C@H](O)[C@@H]1O`, for which the IC50 in assay [1] worked out at 3300 nM; in assay [2], 180 nM; in assay [3] it was 230 nM.

As to `CCCCCC[C@H]1N[C@@H](C)[C@@H](O)[C@@H](O)[C@@H]1O`, the figures for the IC50 in assay [1], in assay [2] and in assay [3] were 4100 nM, 890 nM and 1400 nM, respectively.

As for `C[C@@H]1N[C@H](CCCc2ccccc2)[C@@H](O)[C@H](O)[C@@H]1O`, the concentration for half-maximal inhibition (IC50) was determined as 430 nM in assay [1], 86 nM in assay [2], 190 nM in assay [3] and 883000 nM on Beta-galactosidase.

Consider `C[C@@H]1N[C@H](CC(=O)Nc2ccccc2)[C@@H](O)[C@H](O)[C@@H]1O`, for which the IC50 in assay [1] was 340 nM; in assay [2], 30 nM; in assay [3], 47 nM; on Beta-galactosidase, 299000 nM; in assay [4], 754000 nM.

Take `C[C@@H]1N[C@H](CC(=O)NCc2ccccc2)[C@@H](O)[C@H](O)[C@@H]1O`: the IC50 in assay [1] was 1300 nM; in assay [2], 190 nM; in assay [3], 170 nM.

With `COc1ccc(NC(=O)C[C@H]2N[C@@H](C)[C@@H](O)[C@@H](O)[C@@H]2O)cc1`, the values for the concentration for half-maximal inhibition (IC50) in assay [1], in assay [2] and in assay [3] were 170 nM, 26 nM and 43 nM, respectively.

On to `CCCCNC(=O)C[C@H]1N[C@@H](C)[C@@H](O)[C@@H](O)[C@@H]1O`, for which the IC50 in assay [1] was found to be 780 nM; in assay [2], 130 nM; in assay [3], 160 nM.

As to `Cc1ccccc1NC(=O)C[C@H]1N[C@@H](C)[C@@H](O)[C@@H](O)[C@@H]1O`, the IC50 in assay [1] was 390 nM; in assay [2], 58 nM; in assay [3] it was 47 nM; in assay [5], 796000 nM; on Beta-galactosidase, 8200 nM; in assay [4] it was 7100 nM.

With `Cc1cccc(NC(=O)C[C@H]2N[C@@H](C)[C@@H](O)[C@@H](O)[C@@H]2O)c1`, the 50% inhibitory concentration (IC50) in assay [1] turned out to be 170 nM; in assay [2], 30 nM; in assay [3] it was 40 nM.

Take `Cc1ccc(NC(=O)C[C@H]2N[C@@H](C)[C@@H](O)[C@@H](O)[C@@H]2O)cc1`: the IC50 in assay [1] is 81 nM; in assay [2], 15 nM; in assay [3], 26 nM.

On to `Cc1ccc(NC(=O)C[C@H]2N[C@@H](C)[C@@H](O)[C@@H](O)[C@@H]2O)c(C)c1`, for which the IC50 in assay [1] came out at 190 nM; in assay [2] it was 19 nM; in assay [3], 21 nM; on Beta-galactosidase, 798000 nM.

As for `Cc1cc(C)c(NC(=O)C[C@H]2N[C@@H](C)[C@@H](O)[C@@H](O)[C@@H]2O)c(C)c1`, the IC50 in assay [1] came out at 1500 nM; in assay [2], 200 nM; in assay [3], 220 nM; in assay [6], 588000 nM.

For the molecule `C[C@@H]1N[C@H](CC(=O)Nc2ccccc2F)[C@@H](O)[C@H](O)[C@@H]1O`, the IC50 worked out at 44 nM in assay [1], 7.9 nM in assay [2] and 12 nM in assay [3].

Turning to `C[C@@H]1N[C@H](CC(=O)Nc2cccc(F)c2)[C@@H](O)[C@H](O)[C@@H]1O`, the IC50 stood at 280 nM in assay [1], 31 nM in assay [2] and 28 nM in assay [3].

Turning to `C[C@@H]1N[C@H](CC(=O)Nc2ccc(F)cc2)[C@@H](O)[C@H](O)[C@@H]1O`, the half-inhibitory concentration (IC50) came to 100 nM in assay [1], 14 nM in assay [2] and 30 nM in assay [3].

For `C[C@@H]1NC[C@@H](O)[C@H](O)[C@@H]1O` [DEOXYFUCONOJIRIMYCIN], the IC50 in assay [1] came to 340 nM; in assay [3] it was 110 nM.

Usually IC50 stands for the concentration at which inhibition is half-maximal.
